Test results as given in article PMC10149936, “Cofilin activation in pancreatic acinar cells plays a pivotal convergent role for mediating CCK-stimulated enzyme secretion and growth” (Frontiers in Physiology, 2023).
pIC50: −log10 of the molar value.

Legend:
[1] = test system: cofilin in human T lymphocytes; conditions: stimulated by CD2 or CD28; ref Ambach et al., 2000; cited from earlier work
Source text: (§1) Because our results differ from the general finding that the two major signaling cascades in other tissues mediating cofilin activity, which involve alterations in LIMK and/or SSH1 activity ([Wang et al., 2005]; [Spratley et al., 2011]; [Mizuno, 2013]; [Ohashi, 2015]; [Xu et al., 2021]), were not important in mediating CCK’s activation of cofilin in pancreatic acini, we explored the possible involvement of other phosphatases that have been reported to participate in cofilin activation in other tissues with other stimulants. The activation of the serine/threonine phosphatases type 1 (PP1) or ty ...

[2] = test system: cofilin (pS3) in rat pancreatic acini; test: cofilin activation (phospho-pS3 cofilin Western blot) in isolated rat pancreatic acini; format: cell-based; conditions: for reversal of cofilin dephosphorylation by CCK-8: Wortmannin 1 µM, LY294002 100 µM, SB202190 10 µM, U0126 10 µM, Y-27632 10 µM 1 h, SP600125 20 µM 3 h; for decrease of basal level of cofilin phosphorylation / inhibition of cofilin activation stimulated by CCK-8: calyculin A 1 nM or okadaic acid 10 nM
Procedure: Pancreatic acini preparations were obtained by collagenase digestion as previously described ([Bissonnette et al., 1984]; [Sato et al., 1989]; [Ramos-Alvarez and Jensen, 2018]). After collagenase digestion, dispersed acini were preincubated with different inhibitors in standard incubation solution ([Ramos-Alvarez and Jensen, 2018]; [Ramos-Ãlvarez et al., 2020]) for 3 h at 37°C under conditions specific for PKD/PKC, Src, PI3K, MAPKs, SSH1, LIMK, cofilin, other phosphatases and PAK4 inhibitors, as described previously ([Ramos-Alvarez and Jensen, 2018]; [Ramos-Ãlvarez et al., 2020]). Isolated acini and CCK1-R/Panc-1 cells (M&M 2.2.1) were also preincubated with two SSH1 inhibitors, D3 (25 μM, 1 h) ([Li et al., 2015]) or SE (50 μM, 3 h for acini; 24 h for CCK1-R/Panc-1 cells) ([Lee et al., 2017]). After preincubation, 1 mL aliquots of dispersed acini were incubated at 37°C for 3–15 min with CCK-8 (0.3 nM or 100 nM), for 5–15 min with TPA (1 µM) or without stimulants, used as control. Cells were lysed in lysis buffer (50 mM Tris/HCl pH 7.5, 150 mM NaCl, 1% Triton X-100, 1% deoxycholate, 0.1% sodium azide, 1 mM EGTA, 0.4 mM EDTA, 0.2 mM sodium orthovanadate, 1 mM PMSF, and one protease inhibitor tablet per 10 mL). After sonication, lysates were centrifuged at 10,000×g for 15 min at 4°C and protein concentration was measured using the Bio-Rad protein assay reagent. Finally, cells were processed as below for Western blotting.
Both concentrations of CCK-8 were used because CCK-8 is reported to have different responses with physiological and supraphysiological concentrations contributing to physiological and pathophysiological processes such as pancreatitis ([Dufresne et al., 2006]).
Western blotting and immunoprecipitation were performed as described previously ([Ramos-Alvarez and Jensen, 2018]). Whole cell lysates were subjected to SDS-PAGE using 4%–20% Tris–Glycine gels. […] Finally, membranes were then washed again twice in blocking buffer for 4 min, twice in washing buffer for 4 min, incubated for 4 min with chemiluminescence detection reagents. The intensity of the protein bands was measured using GeneTools software from Syngene, which were assessed in the linear detection range.
All experiments were performed at least 3 times. Data are presented as mean ± SEM and were analyzed with the non-parametric Kruskal–Wallis analysis (data was not normally distributed) and the Dunn’s multiple comparison test using the GraphPad Prism 8.0 software. P values < 0.05 were considered significant.
(A) Isolated pancreatic acini were incubated in the absence or presence of CCK-8 (100 nM), carbachol (1 μM), bombesin (1 nM), secretin (1 nM) or VIP (1 nM) for 1 min and then lysed. (B) Isolated pancreatic acini were incubated in the absence or presence of CCK-8 and CCK-JMV (at the indicate concentrations) for 3 min and then lysed. Western blots were analyzed using anti-pS3 cofilin, which mediates the activation state of cofilin. Bands were visualized using chemiluminescence and quantified by densitometry.

[3] = test system: cofilin / phospho-PP2A association; test: co-immunoprecipitation of cofilin with phospho-PP2A (pY307) in pancreatic acini; format: cell-based, rat; conditions: legend: kbNB 0.1 µM or PP2 10 µM, 3 h; CCK-8 100 nM, TPA 1 µM
Procedure: For co-immunoprecipitation, 600 μg of protein was incubated with 15 μL of the anti-cofilin antibody (Santa Cruz Biotechnology, Inc. Dallas, TX) and 25 μL of protein A/G agarose beads (Thermo-Fisher Scientific. Waltham, MA) overnight at 4°C under agitation. Samples were washed three times with lysis buffer, re-suspended in 12.5 μL of Sample Buffer, Laemlii 2x concentrate and boiled for 5 min before western blotting.
FIGURE 8 Effect of a PKD inhibitor, kbNB, or a Src inhibitor, PP2, on the ability of CCK-8 (100 nM) and TPA (1 µM) to stimulate the association of cofilin with either phospho-PP2A (A) or total PP2A (B). Isolated pancreatic acini were incubated in the absence or presence of kbNB (0.1 µM) or PP2 (10 µM) for 3 h and then incubated with no addition (control), CCK-8 (100 nM, 3 min) or TPA (1 μM, 5 min), and then lysed. Equal amounts of protein were co-immunoprecipitated with an anti-cofilin (Santa Cruz, SC-376476) and then subjected to Western blots using anti-pY307 PP2A and anti-PP2A. Bands were visualized using chemiluminescence and quantified by densitometry. Top: Results of a representative blot of four independent experiments are shown. Bottom: Means ± S.E. of at least 4 independent experiments. Results are expressed as % of basal stimulation of the control group. N.S., No significant.

p38β = conditions: reference not given; cited from earlier work
p38α = conditions: reference not given; cited from earlier work
JNK1-3 = conditions: reversible ATP-competitive; reference not given; cited from earlier work
Source text: (Figure 10) In various tissues with difference stimuli, cofilin dephosphorylation and activation, has been reported to be mediated by PI3K, ROCK and various MAPKs (p38, p44/42, JNK) ([Won et al., 2008]; [Duan et al., 2014]), therefore we assessed their possible role in CCK-8-stimulated cofilin activation. Previous studies have shown that, in pancreatic acini and/or other tissues, CCK-8 activates each of these signaling cascades ([Berna et al., 2009]; [Camello-Almaraz et al., 2009]; [Ramos-Alvarez and Jensen, 2018]; [Ramos-Ãlvarez et al., 2020]). In order to address the role of these signal cas ...

MEK2 = conditions: non ATP-competitive; reference not given; cited from earlier work
MEK1 = conditions: non ATP-competitive; reference not given; cited from earlier work
PP2A / PP1 = conditions: low concentrations; ref Ishihara et al., 1989; Takai et al., 1992; Lutz et al., 1993; Schmidt et al., 1994; Walsh et al., 1997; cited from earlier work
Source text: (Figures 5, 6) In human T lymphocytes, neurons, the 293 T cell line (human embryonic kidney 293 cells) and HeLa cells, it is reported that activation of cofilin can occur due its dephosphorylation through the co-stimulation activation of accessory receptors (e.g.,.CD2, CD3 or CD28) by CD3xCD28 mAb, with Endothelin-1 (ET-1), and the Ca^2+ ionophore A23187, which is mediated by activation of serine protein phosphatases ([Ambach et al., 2000]; [Wang et al., 2005]; [Tam et al., 2019]). Therefore, to explores the possible role of the protein phosphatases PP1, PP2A, PP2B in CCK-8-induced activation ...

PP2A = conditions: cited from earlier work
Source text: as §1

parotid acinar cells = test system: parotid acinar cells; parameters: method as in Tamaki and Yamashina, 2002; conditions: ref Tamaki and Yamashina, 2002; cited from earlier work
pancreas = test system: pancreas; parameters: method as in Waschulewski et al., 1996; conditions: ref Waschulewski et al., 1996; cited from earlier work
[4] = 3 h, CCK-8 0.3 and 100 nM 3 min

C=CC[C@@H]1/C=C(\C)C[C@H](C)C[C@H](OC)[C@H]2O[C@@](O)(C(=O)C(=O)N3CCCC[C@H]3C(=O)O[C@H](/C(C)=C/[C@@H]3CC[C@@H](O)[C@H](OC)C3)[C@H](C)[C@@H](O)CC1=O)[C@H](C)C[C@@H]2OC [FK-506]
effect on dephosphorylation of cofilin in human T lymphocytes [1]: did not affect the dephosphorylation of cofilin in human T lymphocytes | effect on CCK-8 or TPA's activation of cofilin ([2]; FK-506 10 µM 3 h, CCK-8 0.3 and 100 nM 3 min, TPA 1 µM 5 min): had no effect

CN(C)CCCn1cc(C2=C(c3c[nH]c4ccccc34)C(=O)NC2=O)c2ccccc21 [GF109203X]
inhibition of decrease in phospho-PP2A co-immunoprecipitation stimulated by CCK-8 and TPA [3]: completely inhibited | effect on basal phosphorylation level of cofilin ([2]; GFX 5 µM, kbNB 0.1 µM or PP2 10 µM, 3 h, no stimulant): None of these inhibitors altered the basal phosphorylation level of cofilin | reversal of cofilin dephosphorylation stimulated by CCK-8 and TPA ([2]; GFX 5 µM, kbNB 0.1 µM or PP2 10 µM, 3 h, CCK-8 100 nM 3 min, TPA 1 µM 5 min): completely reversed

Oc1ccc(-c2nc(-c3ccncc3)c(-c3ccc(F)cc3)[nH]2)cc1 [SB202190]
reversal of cofilin dephosphorylation by CCK-8 ([2]; CCK-8 0.3 and 100 nM 3 min): not PI3K or p38 | pIC50 (p38β): […] | pIC50 (p38α): […]

Oc1c2ccccc2c2c3c(cccc13)N=N2 [SP600125]
pIC50 (JNK1-3): 6.96 | reversal of cofilin dephosphorylation by CCK-8 ([2]; CCK-8 0.3 and 100 nM 3 min): completely reversed

N#CC(=C(/N)Sc1ccccc1N)/C(C#N)=C(/N)Sc1ccccc1N [U0126]
pIC50 (MEK2): 7.24 | reversal of cofilin dephosphorylation by CCK-8 ([2]; CCK-8 0.3 and 100 nM 3 min): Only preincubation with the JNK inhibitor, SP600125 (Figure 10C), and the ROCK inhibitor, Y-27632, (Figure 10D), completely reversed cofilin dephosphorylation by CCK-8 | pIC50 (MEK1): 7.14

COC[C@@H]([C@H](O)[C@H](O)C(=O)NCC[C@H](C)c1nc(/C=C/C[C@@H]2O[C@]3(C[C@@H](O)[C@@H]2C)O[C@H]([C@H](C[C@H](O)[C@H](C)[C@H](O)[C@H](C)/C=C(C)/C(C)=C/C=C/C(C)=C\C#N)OC)[C@H](OP(=O)(O)O)C3(C)C)co1)N(C)C [calyculin A]
decrease of basal level of cofilin phosphorylation ([2]; 3 h, no stimulant): 24% | inhibition of cofilin activation stimulated by CCK-8 [2, 4]: completely inhibited | selectivity PP1/PP2A/PP2B (PP2A / PP1): inhibits equally PP1 and PP2A activity, but not PP2B

C=C1[C@@H](O)[C@@H]2O[C@]3(CC[C@H](/C=C/[C@@H](C)[C@@H]4CC(C)=C[C@@]5(O[C@H](C[C@@](C)(O)C(=O)O)CC[C@H]5O)O4)O3)CC[C@H]2O[C@@H]1[C@@H](O)C[C@H](C)[C@H]1O[C@@]2(CCCCO2)CC[C@H]1C [okadaic acid]
phosphatase selectivity in pancreatic acini (PP2A; nanomolar concentrations, pancreatic acini, ref Wagner et al., 1992): only inhibit PP2A | pIC50 (PP2A; pancreatic acinar cells, ref Lutz et al., 1993, read-out: IC50, CCK1R-stimulated phosphatase activity (PP2A) in cytosol of pancreatic acinar cells): 9.70 | effect on amylase release in parotid acinar cells (parotid acinar cells): disrupted amylase release in parotid acinar cells | decrease of basal level of cofilin phosphorylation ([2]; 3 h, no stimulant): 12% | inhibition of cofilin activation stimulated by CCK-8 [2, 4]: completely inhibited | effect on stimulated enzyme secretion in pancreas (pancreas): completely blocked stimulated enzyme secretion in pancreas | greater inhibitory effect on PP2A over PP1 (PP2A / PP1): 50-250 fold
